Columns and labels:
Carbonic anhydrase 9 = Carbonic anhydrase 9 (Homo sapiens, UniProt Q16790)
Description: Inhibition of human carbonic anhydrase 9 by Lineweaver-Burk curves

[1] = molecular target: Carbonic anhydrase 5A, mitochondrial (Homo sapiens, UniProt P35218)
Description: Inhibition of human carbonic anhydrase 5 by Lineweaver-Burk curves

Carbonic anhydrase 1 = Carbonic anhydrase 1 (Homo sapiens, UniProt P00915)
Description: Inhibition of human carbonic anhydrase 1 by Lineweaver-Burk curves

Carbonic anhydrase 4 = Carbonic anhydrase 4 (Homo sapiens, UniProt P22748)
Description: Inhibition of human carbonic anhydrase 4 by Lineweaver-Burk curves

Carbonic anhydrase 2 = Carbonic anhydrase 2 (Homo sapiens, UniProt P00918)

Chain of Carbonic anhydrase 5A, mitochondrial (P35218 whole entry): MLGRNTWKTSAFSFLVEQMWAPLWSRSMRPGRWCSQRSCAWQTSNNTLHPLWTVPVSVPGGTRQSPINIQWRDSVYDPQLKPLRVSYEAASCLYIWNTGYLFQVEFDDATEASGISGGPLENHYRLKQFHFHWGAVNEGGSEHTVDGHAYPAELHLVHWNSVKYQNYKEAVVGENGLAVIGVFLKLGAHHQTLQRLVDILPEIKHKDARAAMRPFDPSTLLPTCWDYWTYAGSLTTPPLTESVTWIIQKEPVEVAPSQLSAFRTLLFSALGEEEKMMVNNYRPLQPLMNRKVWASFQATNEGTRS
Chain of Carbonic anhydrase 1 (P00915 whole entry): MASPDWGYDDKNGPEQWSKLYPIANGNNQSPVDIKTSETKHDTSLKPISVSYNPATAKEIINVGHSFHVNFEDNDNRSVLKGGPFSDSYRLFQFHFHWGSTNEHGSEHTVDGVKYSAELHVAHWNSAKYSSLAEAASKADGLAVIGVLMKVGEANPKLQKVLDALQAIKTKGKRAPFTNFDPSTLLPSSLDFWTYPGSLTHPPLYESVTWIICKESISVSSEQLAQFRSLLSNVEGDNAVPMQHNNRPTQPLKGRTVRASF
Chain of Carbonic anhydrase 4 (P22748 whole entry): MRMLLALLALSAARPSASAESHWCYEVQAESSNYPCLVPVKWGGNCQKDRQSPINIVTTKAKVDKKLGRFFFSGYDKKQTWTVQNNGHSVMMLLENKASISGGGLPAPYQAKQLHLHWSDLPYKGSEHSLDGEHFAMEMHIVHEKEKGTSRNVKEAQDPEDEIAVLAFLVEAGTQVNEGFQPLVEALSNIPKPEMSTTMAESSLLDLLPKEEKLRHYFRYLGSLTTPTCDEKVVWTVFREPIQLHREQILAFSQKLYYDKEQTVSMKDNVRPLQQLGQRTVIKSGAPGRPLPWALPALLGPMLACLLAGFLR

Structure (SMILES) | Ki (Carbonic anhydrase 9) [mM] | Ki [1] [mM] | Ki (Carbonic anhydrase 1) [mM] | Ki (Carbonic anhydrase 4) [mM] | Ki (Carbonic anhydrase 2) [mM]
O=[N+]([O-])[O-].[K+] [POTASSIUM NITRATE] | 46 | 16 | 7 | 58.7 | –
[F-].[K+] [POTASSIUM FLUORIDE] | 48 | 241 | – | 0.07 | –
O=S(=O)([O-])[O-].[Na+].[Na+] [SODIUM SULFATE ANHYDROUS] | – | 680 | – | 9 | –
N#C[S-].[Na+] [THIOCYANATE SODIUM] | 0.13 | 0.74 | – | 39 | –
[I-].[K+] [POTASSIUM IODIDE] | 7 | 25 | 0.3 | 0.08 | –
[N-]=[N+]=[N-] [SODIUM AZIDE] | 0.005 | 0.3 | – | – | –
[Cl-].[K+] [POTASSIUM CHLORIDE] | 33 | 156 | 6 | 0.09 | > 200
O=NO [SODIUM NITRITE] | – | 16 | – | – | –
[Br-].[K+] [POTASSIUM BROMIDE] | 16 | 50 | 4 | 0.09 | –

— ChEMBL document CHEMBL1641504, “Characterization and anions inhibition studies of an α-carbonic anhydrase from the teleost fish Dicentrarchus labrax” (Bioorg Med Chem, 2011)
